From PubChem BioAssay AID743175 (Broad Institute, 2013)
The source made the active and inactive calls. The rule behind the calls is not given here.

Test system: not listed separately
Experiment: inhibitor activity on non-replicating M. tuberculosis, dose response, plate reader, dry powder (AID 743175)
Conditions: Mycobacterium tuberculosis non-replicating, growth inhibition plate reader; at 23.5 µM (top of the series)
In the case of `O=C(C[C@@H]1C=C[C@H](NC(=O)Nc2cc(F)ccc2F)[C@H](CO)O1)NCc1ccc2c(c1)OCO2`, the activity change, negative = inhibition is reported as -1.22% (inactive). For `Cc1noc(C)c1NC(=O)Nc1ccc2c(c1)C(=O)N(C)[C@@H]1CC[C@H](CC(=O)NCc3ccc(Cl)cc3)O[C@H]1CO2`, the activity change, negative = inhibition was -0.708% (inactive). In the case of `Cc1noc(C)c1NC(=O)Nc1ccc2c(c1)C(=O)N(C)[C@H]1CC[C@@H](CC(=O)NCc3ccc(Cl)cc3)O[C@@H]1CO2`, the activity change, negative = inhibition is reported as -7.13% (inactive).

Same assay, conditions: Mycobacterium tuberculosis non-replicating, growth inhibition plate reader; at 26 µM (top of the series)
With `C[C@H](C(=O)N(C)C[C@H]1OCc2ccccc2-c2ccccc2C(=O)N([C@@H](C)CO)C[C@@H]1C)c1ccccc1` the activity change, negative = inhibition was -9.24% (inactive). With `COc1ccccc1C#Cc1ccc([C@@H]2[C@@H](C#N)N(C(=O)C3CC3)[C@@H]2CO)cc1` the activity change, negative = inhibition was -12.4% (inactive). In the case of `C[C@H](C(=O)N(C)C[C@@H]1OCc2ccccc2-c2ccccc2C(=O)N([C@@H](C)CO)C[C@H]1C)c1ccccc1`, the activity change, negative = inhibition is reported as 1.76% (inactive). With `CNC[C@@H]1OCCCC[C@@H](C)Oc2ccc(NC(=O)CCCN(C)C)cc2C(=O)N([C@@H](C)CO)C[C@H]1C` the activity change, negative = inhibition was 6.36% (inactive). In the case of `O=C(C[C@@H]1C[C@H]2c3cc(NC(=O)c4cccnc4)ccc3O[C@H]2[C@H](CO)O1)NCC(F)(F)F`, the activity change, negative = inhibition is reported as 4.14% (inactive). In the case of `COc1ccccc1C#Cc1ccc([C@H]2[C@@H](CO)N(C(=O)C3CC3)[C@H]2C#N)cc1`, the activity change, negative = inhibition is reported as -16.4% (inactive). With `COCCNC(=O)C[C@H]1C[C@@H]2c3cc(NC(=O)Nc4ccc(C(F)(F)F)cc4)ccc3O[C@@H]2[C@@H](CO)O1` the activity change, negative = inhibition was -5.53% (inactive). For `O=C(C[C@H]1C=C[C@H](NC(=O)Nc2cc(F)ccc2F)[C@@H](CO)O1)NCc1ccc2c(c1)OCO2`, the activity change, negative = inhibition was -6.29% (inactive). For `COCCNC(=O)C[C@@H]1C[C@@H]2c3cc(NC(=O)Nc4ccc(C(F)(F)F)cc4)ccc3O[C@@H]2[C@@H](CO)O1`, the activity change, negative = inhibition was 9.37% (inactive). With `C[C@@H]1CN([C@H](C)CO)C(=O)c2ccccc2-c2ccccc2CO[C@@H]1CN(C)C(=O)[C@H](C)c1ccccc1` the activity change, negative = inhibition was -3.88% (inactive). With `COCCNC(=O)C[C@H]1C[C@H]2c3cc(NC(=O)Nc4ccc(C(F)(F)F)cc4)ccc3O[C@H]2[C@H](CO)O1` the activity change, negative = inhibition was 5.95% (inactive). For `O=C(C[C@H]1C[C@@H]2c3cc(NC(=O)c4cccnc4)ccc3O[C@@H]2[C@@H](CO)O1)NCC(F)(F)F`, the activity change, negative = inhibition was 2.49% (inactive).

Same assay, conditions: Mycobacterium tuberculosis non-replicating, growth inhibition plate reader; at 38 µM (top of the series)
With `CCOC(=O)c1c(C)n(C)c2ccc(OC(C)C(=O)OC)cc12` (configuration not stated) the activity change, negative = inhibition was -6.52% (inactive).

Test system: Mycobacterium tuberculosis non-replicating, growth inhibition plate reader
Experiment: as above
Conditions: not given
In the case of `CCOC(=O)c1sc(NC(=O)CCN2CCOCC2)c(C(=O)OCC)c1C`, the AC90 is reported as > 38 µM (inactive). In the case of `NC1CCN(c2c(F)cc3c(=O)c(C(=O)O)cn(C4CC4)c3c2Cl)C1` (configuration not stated), the AC90 is reported as 2.94 µM. Molecule `Cc1cccc(C)c1N1C(=O)CC(N2CCSCC2)C1=O` (configuration not stated) has an AC90 of 5.72 µM. For `CCOC(=O)COc1ccc(C(=O)NC2CCCCC2)cc1`, the AC90 was > 38 µM (inactive). With `O=C(NCc1cccs1)c1ccc(Br)o1` the AC90 was > 38 µM (inactive). `O=C(Nc1nc2ccccc2[nH]1)c1cccc(Cl)c1` gave an AC90 of 11.4 µM. In the case of `CCOC(=O)c1cc(-c2csc(COc3ccccc3)n2)on1`, the AC90 is reported as > 38 µM (inactive). `Cc1cccc(Cn2ccc(NC(=O)c3ccc4c(c3)OCO4)n2)c1` showed an AC90 of 20 µM. For `COC(=O)COc1cccc(NC(=O)c2ccc(Cl)cc2)c1`, the AC90 was > 38 µM (inactive). With `CCOCCOC(=O)COc1ccc2c(-c3ccccc3)cc(=O)oc2c1` the AC90 was > 38 µM (inactive). For `CCOC(=O)COc1ccc2c(=O)c(-c3ccccc3)coc2c1`, the AC90 was > 38 µM (inactive). In the case of `COc1ccccc1C#Cc1ccc([C@H]2[C@H](C#N)N(C(=O)C3CC3)[C@H]2CO)cc1`, the AC90 is reported as > 26 µM (inactive). For `COc1ccccc1C#Cc1ccc([C@@H]2[C@@H](C#N)N(C(=O)C3CC3)[C@H]2CO)cc1`, the AC90 was > 26 µM (inactive). For `O=C(NC1CC2CCC1C2)C1COc2ccccc2O1` (configuration not stated), the AC90 was > 38 µM (inactive). Work on `Brc1c(-c2ccc3c(c2)OCO3)nc2ncccn12` yielded an AC90 of 32.3 µM. With `c1ccc(Nc2nc(-c3ccccn3)cs2)cc1` the AC90 was > 38 µM (inactive). With `CCc1ccc(OCCCC(=O)NCc2ccco2)cc1` the AC90 was > 38 µM (inactive). Work on `Cc1nnc(NC(=O)c2ccc3ccccc3c2)o1` yielded an AC90 of 1.34 µM. With `COC(=O)COc1ccc2c(=O)c(Oc3ccccc3)c(C)oc2c1` the AC90 was > 38 µM (inactive). In the case of `O=C(COc1cccc2ccccc12)Nc1nc2ccccc2[nH]1`, the AC90 is reported as > 38 µM (inactive). In the case of `CCOC(=O)COc1ccc2c(c1)C(=O)CC1(CCCCC1)O2`, the AC90 is reported as > 38 µM (inactive). With `CCOC(=O)COc1ccc2c(=O)cc(-c3ccccc3)oc2c1` the AC90 was > 38 µM (inactive). For `O=C(COc1c(Br)cc(Br)c2cccnc12)N1CCCCC1`, the AC90 was 6.33 µM. In the case of `CCCCN(C/C=C/c1ccccc1OC)Cc1ccccc1`, the AC90 is reported as > 38 µM (inactive). With `COc1ccccc1C#Cc1ccc([C@H]2[C@@H](CO)N(C(=O)C3CC3)[C@H]2C#N)cc1` the AC90 was > 26 µM (inactive). In the case of `COc1ccccc1C#Cc1ccc([C@@H]2[C@H](C#N)N(C(=O)C3CC3)[C@H]2CO)cc1`, the AC90 is reported as > 23.5 µM (inactive).
